Laboratory results as given in patent publication US20250236600A1, “SUBSTITUTED VINYL PIPERAZINE-PIPERIDINE UREA DERIVATIVES AS ANTICANCER AGENTS” (UNIVERSITA' DEGLI STUDI DI PAVIA, priority 2021, published 2025).
“Also recorded” adds a separate entry of the source. Values belong to the compound of their own block, whether it stands above or below them.

Legend:
U87-MG cells [1] = test: Boyden chamber cell invasion, U87-MG; assay type: cell-based, Human; details: treated at IC20 of SRB assay, 16 hours, FIG. 10A
Experimental: (§1) Cell invasion is evaluated by Boyden Chamber. In Boyden chamber, cells attracted by a chemoattractant pass through a porous membrane coated with gelatine. This in vitro assay is indicative of the ability of cells to cross an extracellular substrate and invade surrounding tissues. U87-MG and RPMI cells were resuspended in FBS-free medium, with or without treatments. IC20 obtained in SRB assay was used as compound treatment concentration, in order to not affect the invasion results with a too high mortality. 5×10^3 cells/well were seeded in the upper compartment of the Boyden chamber. In the lower compartment a complete medium supplemented with 10% FBS was placed. FBS was used as chemoattractant. Between the two compartments, a gelatine coated polycarbonate membrane with 8 μm pores was placed. The Boyden chamber, thus set up, was placed at 37° C. in an incubator for 24 hours (RPMI 8226 cells) or for 16 hours (U87-MG cells). After incubation membrane was removed and cells on the lower surface of the membrane were fixed and stained with Diffquick staining kit. Micrographs were taken and cells were counted using ImageJ software.
(§2) Statistical analysis of the data obtained was performed using the ANOVA and the Dunnet's post-hoc test. Values of p<0.01 (**) were considered statistically significant.
(§3) The results, expressed as the mean±standard deviation, represents the percentage of cells that are able to pass through the membrane compared to untreated control (arbitrarily set to 100%).

[2] = tested on: dorsal root ganglia (DRG); test: NGF-induced neurite outgrowth of DRG organotypic cultures (neurotoxic effect); assay type: cell-based, embryonic Sprague-Dawley rats; details: for neurotoxicity in vitro (result in words): concentrations = IC20, IC50, IC80 of U87-MG SRB assay, neurotoxic if neurites length less than 50% of control
Experimental: Evaluation of NGF-induced neurite outgrowths was performed on dorsal root ganglia (DRG) of 15-day-old embryonic Sprague-Dawley rats. Briefly, DRG were aseptically collected and plated onto collagen coated dishes. DRG were cultured in AN2 medium supplemented with 5 ng/mL NGF in a 5% CO2 humidified incubator at 37° C. DRG were treated after 2 hours with increasing concentrations of compounds, corresponding to IC20, IC50 and IC80 in U87-MG SRB assay. Micrographs of DRG were taken after 24 and 72 hours of treatment and neurite elongation was manually measured using ImageJ software.
as §2
The results, expressed as the mean±standard deviation, represents the percentage of neurite outgrowth compared to untreated control (arbitrarily set to 100%).
According to this method of in vitro neurotoxicity evaluation, a compound can be considered neurotoxic if neurites length is less than 50% of the control.

Proteasome [3] = test: Proteasome activity (7-Amido-4-Methylcoumarin fluorescent probe) in U87-MG cells; assay type: cell-based, Human; details: treated at IC50 of SRB assay, 24 hours; for proteasome inhibition: FIG. 11A
Experimental: (§4) Proteasome is a cellular complex responsible for the degradation of a high amount of regulatory, misfolded or damaged intracellular proteins. It is considered an important target for anticancer therapy. Proteasome activity was evaluated by 7-Amido-4-Methylcoumarin fluorescent probe. U87-MG and RPMI 8226 cells were cultured in 6 well-plates at 25×10^4 cells/well density and were treated with IC50 concentration of each compound (calculated in SRB assay). After 24 hours of treatment, cells were collected and total protein extracts were obtained. Lysis buffer (5 mM Hepes pH 7.5, 150 mM NaCl, 10% glycerol, 1% Triton X100, 1.5 mM MgCl2, 5 mM EGTA) was […] with proteases and phosphatases inhibitors. Protein content was quantified using Bradford method. 40 μg of proteins were mixed with proteasome buffer (250 mM Hepes pH 7.5, 5 mM EDTA, 0.5% NP-40, 0.01% SDS) and 2.2 mM 7-Amido-4-Methylcoumarin. After 2 hours of incubation at 37° C., fluorescence was quantified in a microplate reader (excitation 380 nm, emission 460 nm). Statistical analysis of the data obtained was performed using the ANOVA and the Dunnet's post-hoc test. Values of p<0.01 (**) were considered statistically significant. The results, expressed as the mean±standard deviation, represents the percentage of proteasome activity compared to untreated control (arbitrarily set to 100%).

Proteasome [4] = test: Proteasome activity (7-Amido-4-Methylcoumarin fluorescent probe) in RPMI 8226 cells; assay type: cell-based, Human; details: RPMI 8226, treated at IC50 of SRB assay, 24 hours
Experimental: as §4

RPMI 8226 cells [5] = test: Boyden chamber cell invasion, RPMI 8226; assay type: cell-based, Human; details: RPMI 8226, treated at IC20 of SRB assay, 24 hours; for cell invasion compared to untreated control: control = 100%; for cell invasion (result in words): FIG. 10B
Experimental: as §1, §2, §3

U87-MG cells [6] = test: Scratch wound healing cell migration assay; assay type: cell-based, Human; details: 1-10 μM, 24 hours, FIG. 9
Experimental: FIG. 9 represent cell migration assays on U87-MG cells.
The scratch wound healing assay evaluates the ability of cells to close a manually created gap on the cell monolayer in vitro. This assay is indicative of cell motility and the ability of cells to propagate locally.
Cells were seeded in 6-well plates and were incubated until reaching confluence. At this point, using a plastic tip, a scratch was manually created on the surface of the cell monolayer. Culture medium was then replaced with fresh medium with or without treatments. Cells were treated with increasing concentrations of the compounds (1-10 μM). Micrographs were taken immediately after the scratch (t0) and 24 hours later (t24). The area of the scratch was measured using ImageJ software and cell migration area was calculated by subtracting the t24 area from the t0 area.
(§5) Statistical analysis of the data obtained was performed using the one-way analysis of variance (ANOVA) and the Dunnet's post-hoc test. Values of p<0.01 (**) were considered statistically significant.
The results, expressed as the mean±standard deviation, represents the percentage of the cell migration area compared to untreated control (arbitrarily set to 100%).

U87-MG cells [7] = test: Sulforhodamine B (SRB) cell viability assay, U87-MG; assay type: cell-based; details: Homo sapiens, U-87 MG, 24 hours
Description: (§6) Sulforhodamine B (SRB) assay was used to evaluate RPMI 8226 cell viability in vitro. It is a widely used method to evaluate cell viability and cytotoxicity. This method relies on the property of SRB, which binds stoichiometrically to proteins under mild acidic conditions. Thus, the amount of bound dye can be used as measure of cell proliferation.
(§7) Human RPMI 8226 and U87-MG cells were growth in culture medium (DMEM low glucose for U87-MG and RPMI 1640 for RPMI 8226), supplemented with 10% fetal bovine serum, 1% L-glutamine, 1% penicillin and streptomycin. Cells were maintained in a humidified incubator at 37° C. and 5% CO2. For SRB assay, 1×10^4/well cells were seeded in a 96-well plate and were treated with increasing concentrations of the compounds (1-20 μM). After 24 hours, cells were fixed with 10% trichloroacetic acid and were stained with SRB solution. Excess of dye was removed by washing with 1% acetic acid. The protein-bound dye was then dissolved in 10 mM Tris base solution and absorbance was measured at 510 nm using a microplate reader.
as §5
(§8) The results, expressed as the mean±standard deviation, represents the percentage of viable cells compared to untreated control (arbitrarily set to 100%).
(§9) FIG. 7 represents the results obtained in U87-MG cells after treatment with compound 26 (A), 27 (B), 28 (C) 29 (D) and 30 (E). FIG. 8 represents the results obtained for RPMI 8226 cells after treatment with compound 26 (A), 27 (B), 28 (C) 29 (D) and 30 (E). Cells were treated for 24 hours with increasing concentrations of compounds (1, 5, 10 and 20 μM).

RPMI 8226 cells [8] = test: Sulforhodamine B (SRB) cell viability assay, RPMI 8226; assay type: cell-based, Human; details: RPMI 8226, SRB assay, 24 hours; for IC20 / IC50: Homo sapiens
Description: as §6, §7, §5, §8, §9

SMILES: C/C(=C\CN1CCN(C(=O)NC2CCCC2)CC1)c1ccc2ccccc2c1 [Compound 26, (E)-N-cyclopentyl-4-(3-(naphthalen-2-yl)but-2-en-1-yl)piperazine-1-carboxamide]
cell invasion (result in words) (U87-MG cells [1]): weak effect against cell invasion
concentration up to which not neurotoxic ([2]; rat DRG neurite outgrowth, 24 and 72 hours): up to 13 μM
neurotoxicity in vitro (result in words) ([2]; rat DRG, 24 and 72 hours): at the highest concentration evaluated it was found to be neurotoxic
proteasome inhibition (result in words) (Proteasome [3]): able of inhibiting the proteasome activity
proteasome inhibition (Proteasome [3]): ~50%
proteasome inhibition (result in words) (Proteasome [4]): able of inhibiting the proteasome activity
cell invasion compared to untreated control (RPMI 8226 cells [5]): ~80%
cell migration (result in words) (U87-MG cells [6]): weak ability to reduce migration
IC50 (U87-MG cells [7]): 13.3 ± 0.6 µM
IC20 (RPMI 8226 cells [8]): 22.6 ± 2 µM
IC50 (RPMI 8226 cells [8]): 7.9 ± 0.7 µM
IC80 (RPMI 8226 cells [8]): 3.9 ± 1.2 µM

SMILES: C/C(=C\CN1CCN(C(=O)Nc2ccc(C)cc2)CC1)c1ccc2ccccc2c1 [Compound 28, (E)-4-(3-(naphthalen-2-yl)but-2-en-1-yl)-N-(p-tolyl)piperazine-1-carboxamide]
cell invasion (result in words) (U87-MG cells [1]): very effective in reducing cell invasion; also recorded: significantly able of inhibiting the invasion
neurotoxicity in vitro (result in words) ([2]; rat DRG, 24 and 72 hours): not neurotoxic at all evaluated concentrations and time points
proteasome inhibition (result in words) (Proteasome [3]): able of inhibiting the proteasome activity
proteasome inhibition (result in words) (Proteasome [4]): able of inhibiting the proteasome activity
cell invasion (result in words) (RPMI 8226 cells [5]): statistically significant, however lower than the one obtained in U87-MG cells
cell migration (result in words) (U87-MG cells [6]): strong cell migration inhibitors
IC50 (U87-MG cells [7]): 10.8 ± 1.8 µM
IC20 (RPMI 8226 cells [8]): 7.1 ± 0.6 µM
IC50 (RPMI 8226 cells [8]): 3.7 ± 0.6 µM
IC80 (RPMI 8226 cells [8]): 1.9 ± 0.5 µM

SMILES: COc1ccc2cc(/C(C)=C/CN3CCN(C(=O)Nc4c(F)cccc4F)CC3)ccc2c1 [Compound 30, (E)-N-(2,6-difluorophenyl)-4-(3-(6-methoxynaphthalen-2-yl)but-2-en-1-yl)piperazine-1-carboxamide]
cell invasion (result in words) (U87-MG cells [1]): not effective
neurite length, percentage of untreated control ([2]; rat DRG, all evaluated concentrations): higher than 50%
neurotoxicity in vitro (result in words) ([2]; rat DRG, 24 and 72 hours): not neurotoxic in vitro; also recorded: not neurotoxic at all evaluated concentrations
proteasome inhibition (result in words) (Proteasome [4]): only a weak inhibitory effect
cell invasion compared to untreated control (RPMI 8226 cells [5]): ~80%
cell migration (result in words) (U87-MG cells [6]): strong cell migration inhibitors
IC50 (U87-MG cells [7]): 12.2 ± 0.3 µM
IC20 (RPMI 8226 cells [8]): 7.3 ± 0.1 µM
IC50 (RPMI 8226 cells [8]): 4.5 ± 0.2 µM
IC80 (RPMI 8226 cells [8]): 2.9 ± 0.1 µM

Stronger by IC50 (U87-MG cells [7]), values ahead:

IC50 (U87-MG cells [7]): 10 ± 0.5 µM
SMILES: C/C(=C\CN1CCN(C(=O)NC2CCCCC2)CC1)c1ccc2ccccc2c1 [Compound 27, (E)-N-cyclohexyl-4-(3-(naphthalen-2-yl)but-2-en-1-yl)piperazine-1-carboxamide]
cell invasion (result in words) (U87-MG cells [1]): weak effect against cell invasion
neurotoxicity in vitro (result in words) ([2]; rat DRG, 24 and 72 hours): not neurotoxic at all evaluated concentrations and time points
proteasome inhibition (result in words) (Proteasome [4]): not an inhibitory effect
cell invasion compared to untreated control (RPMI 8226 cells [5]): ~80%
cell migration (result in words) (U87-MG cells [6]): strong cell migration inhibitors
IC20 (RPMI 8226 cells [8]): 9.5 ± 3.7 µM
IC50 (RPMI 8226 cells [8]): 6.4 ± 0.3 µM
IC80 (RPMI 8226 cells [8]): 4.2 ± 2.1 µM

IC50 (U87-MG cells [7]): 7.1 ± 0.1 µM
SMILES: COc1ccc2cc(/C(C)=C/CN3CCN(C(=O)Nc4ccc(C(F)(F)F)cc4)CC3)ccc2c1 [Compound 29, (E)-4-(3-(6-methoxynaphthalen-2-yl)but-2-en-1-yl)-N-(4-(trifluoromethyl)phenyl)piperazine-1-carboxamide]
cell invasion (result in words) (U87-MG cells [1]): reduced cell invasion, but it was less effective than compound 28; also recorded: significantly able of inhibiting the invasion
neurotoxicity in vitro (result in words) ([2]; rat DRG, 24 and 72 hours): not neurotoxic at all evaluated concentrations and time points
proteasome inhibition (result in words) (Proteasome [3]): only a weak inhibitory effect; also recorded: only weak inhibitory activity
proteasome inhibition (Proteasome [3]): ~50%
proteasome inhibition (result in words) (Proteasome [4]): only a weak inhibitory effect; also recorded: only weak inhibitory activity
cell invasion (result in words) (RPMI 8226 cells [5]): statistically significant, however lower than the one obtained in U87-MG cells
cell migration (result in words) (U87-MG cells [6]): strong cell migration inhibitors
IC20 (RPMI 8226 cells [8]): 8.1 ± 0.3 µM
IC50 (RPMI 8226 cells [8]): 4.8 ± 0.1 µM
IC80 (RPMI 8226 cells [8]): 2.9 ± 0.1 µM
